# Test: from Suikov, S.; Kal'nits'kii, M.; Lutsik, O.; Plyushchakova, L.; Bondarenko, A.; Bogza, S.; Popov, A. (2007). Derivatives of 1,2,4-triazolo[4,3-b]pyridazin-6-ylhydrazine as a new training set for …
row,Structure (SMILES),logP
1,CC(=NN=c1ccc2nncn2[nH]1)c1ccc(O)cc1,1.45
2,COc1cccc(C(C)=NN=c2ccc3nncn3[nH]2)c1,1.97
3,CC(=NN=c1ccc2nncn2[nH]1)c1ccc(C)cc1,2.2
4,COc1cc(C=NN=c2ccc3nncn3[nH]2)cc(OC)c1OC,1.53
5,CC(=NN=c1ccc2nncn2[nH]1)c1ccc(F)cc1,2.02

# Results, then the compound that gave them:
row,logP,Structure (SMILES)
1,2.15,CC/C(=N/Nc1ccc2nncn2n1)c1ccccc1
2,1.89,CC(=NN=c1ccc2nncn2[nH]1)c1ccccc1O
3,1.15,CC(=NN=c1ccc2nncn2[nH]1)c1ccccn1
4,0.93,CC(=NN=c1ccc2nncn2[nH]1)c1ccncc1
5,1.94,COc1ccccc1C(C)=NN=c1ccc2nncn2[nH]1
6,1.46,CC(=NN=c1ccc2nncn2[nH]1)c1cccc(O)c1
